{
  "source": "paper PMC5218480",
  "about": "(PLoS ONE, 2017)",
  "test_system": "MV-4-11 cells",
  "assay": "Gene expression microarray analysis (Affymetrix PrimeView) and GSEA",
  "assay_type": "cell-based, human",
  "design": "RFU PODN (11730768_x_at) / Fold change /veh PODN (11730768_x_at) / RFU LINC00158 (11744669_a_at) / Fold change /veh LINC00158 (11744669_a_at) / RFU DUSP10 (11751237_a_at) / Fold change /veh DUSP10 (11751237_a_at) / RFU ID3 (11757404_x_at) / Fold change /veh ID3 (11757404_x_at) / RFU PLEKHG5 (11737974_s_at) / Fold change /veh PLEKHG5 (11737974_s_at) / RFU LRRC4B (11730491_at) / Fold change /veh LRRC4B (11730491_at) / RFU GIMAP4 (11747438_a_at) / Fold change /veh GIMAP4 (11747438_a_at) / RFU KRT8 (11758183_x_at) / Fold change /veh KRT8 (11758183_x_at) / RFU CNN1 (11734310_a_at) / Fold change /veh CNN1 (11734310_a_at) / RFU VPS37D (11726825_at) / Fold change /veh VPS37D (11726825_at) / RFU C10orf10 (11716522_x_at) / Fold change /veh C10orf10 (11716522_x_at) / RFU KIR2DL2 /// KIR2DL4 /// KIR2DL5A /// KIR2DL5B /// KIR2DS1 /// KIR2DS2 /// KIR2DS3 /// KIR2DS4 /// KIR3DL3 /// KIR3DL3 /// KIR3DS1 (11738374_at) / Fold change /veh KIR2DL2 /// KIR2DL4 /// KIR2DL5A /// KIR2DL5B /// KIR2DS1 /// KIR2DS2 /// KIR2DS3 /// KIR2DS4 /// KIR3DL3 /// KIR3DL3 /// KIR3DS1 (11738374_at) / RFU C1QL1 (11718748_at) / Fold change /veh C1QL1 (11718748_at) / RFU TMPRSS4 (11747572_a_at) / Fold change /veh TMPRSS4 (11747572_a_at) / RFU HAMP (11756126_x_at) / Fold change /veh HAMP (11756126_x_at) / RFU RNFT2 (11725882_a_at) / Fold change /veh RNFT2 (11725882_a_at) / RFU NR4A2 (11747474_a_at) / Fold change /veh NR4A2 (11747474_a_at) / RFU ABCC12 (11746883_a_at) / Fold change /veh ABCC12 (11746883_a_at) / RFU TMEM136 (11760407_x_at) / Fold change /veh TMEM136 (11760407_x_at) / RFU CLDN22 /// WWC2 (11732394_at) / Fold change /veh CLDN22 /// WWC2 (11732394_at) / RFU HLA-DPB1 (11760878_x_at) / Fold change /veh HLA-DPB1 (11760878_x_at) / RFU SPINT1 (11716480_a_at) / Fold change /veh SPINT1 (11716480_a_at) / RFU GAP43 (11754022_s_at) / Fold change /veh GAP43 (11754022_s_at) / RFU A4GNT (11735810_at) / Fold change /veh A4GNT (11735810_at) / RFU PRB3 (11715151_x_at) / Fold change /veh PRB3 (11715151_x_at) / RFU TUBB4B (11761932_at) / Fold change /veh TUBB4B (11761932_at) / RFU CAPN14 (11732068_a_at) / Fold change /veh CAPN14 (11732068_a_at) / RFU TMCC2 (11721928_a_at) / Fold change /veh TMCC2 (11721928_a_at) / RFU IRGQ (11745062_a_at) / Fold change /veh IRGQ (11745062_a_at) / RFU FAM174B (11720279_a_at) / Fold change /veh FAM174B (11720279_a_at) / RFU TMPRSS4 (11748680_a_at) / Fold change /veh TMPRSS4 (11748680_a_at) / RFU FAM212B (11763350_a_at) / Fold change /veh FAM212B (11763350_a_at) / RFU PLEKHG5 (11743358_a_at) / Fold change /veh PLEKHG5 (11743358_a_at) / RFU ZSCAN30 (11745921_a_at) / Fold change /veh ZSCAN30 (11745921_a_at) / RFU CMKLR1 (11741424_a_at) / Fold change /veh CMKLR1 (11741424_a_at) / RFU LOC101060620 /// MAPK8IP1 (11723275_at) / Fold change /veh LOC101060620 /// MAPK8IP1 (11723275_at) / RFU SPTSSB (11747773_x_at) / Fold change /veh SPTSSB (11747773_x_at) / RFU PRSS12 (11739890_at) / Fold change /veh PRSS12 (11739890_at) / RFU BIN1 (11741810_x_at) / Fold change /veh BIN1 (11741810_x_at) / RFU WNT11 (11732464_a_at) / Fold change /veh WNT11 (11732464_a_at) / RFU C10orf10 (11716521_a_at) / Fold change /veh C10orf10 (11716521_a_at) / RFU C5orf56 (11738089_at) / Fold change /veh C5orf56 (11738089_at) / RFU CYB561 (11721691_x_at) / Fold change /veh CYB561 (11721691_x_at) / RFU ANKRD19P (11752326_a_at) / Fold change /veh ANKRD19P (11752326_a_at) / RFU OR2T12 /// OR2T33 /// OR2T8 (11738714_s_at) / Fold change /veh OR2T12 /// OR2T33 /// OR2T8 (11738714_s_at) / RFU VCAN (11748164_a_at) / Fold change /veh VCAN (11748164_a_at) / RFU JSRP1 (11732532_at) / Fold change /veh JSRP1 (11732532_at) / RFU KRTAP10-11 (11738290_x_at) / Fold change /veh KRTAP10-11 (11738290_x_at) / RFU MYO3A (11730013_a_at) / Fold change /veh MYO3A (11730013_a_at) / RFU EBF3 (11725865_a_at) / Fold change /veh EBF3 (11725865_a_at) / RFU CAMK2N1 (11719241_x_at) / Fold change /veh CAMK2N1 (11719241_x_at) / RFU C5orf56 (11738088_a_at) / Fold change /veh C5orf56 (11738088_a_at) / RFU OLFML3 (11715873_a_at) / Fold change /veh OLFML3 (11715873_a_at) / RFU LOC100653217 /// NTM (11731650_a_at) / Fold change /veh LOC100653217 /// NTM (11731650_a_at) / RFU MAPK11 (11762145_a_at) / Fold change /veh MAPK11 (11762145_a_at) / RFU FIZ1 (11724087_x_at) / Fold change /veh FIZ1 (11724087_x_at) / RFU OASL (11726364_x_at) / Fold change /veh OASL (11726364_x_at) / RFU SOX15 (11748057_x_at) / Fold change /veh SOX15 (11748057_x_at) / RFU CD79A (11719716_a_at) / Fold change /veh CD79A (11719716_a_at) / RFU HIST1H1D (11736915_at) / Fold change /veh HIST1H1D (11736915_at) / RFU CASKIN2 (11723855_a_at) / Fold change /veh CASKIN2 (11723855_a_at) / RFU LOC730098 (11760151_x_at) / Fold change /veh LOC730098 (11760151_x_at) / RFU OR4N2 (11742367_at) / Fold change /veh OR4N2 (11742367_at) / RFU PRRT2 (11749266_a_at) / Fold change /veh PRRT2 (11749266_a_at) / RFU SNX32 (11753110_a_at) / Fold change /veh SNX32 (11753110_a_at) / RFU CDHR5 (11726645_a_at) / Fold change /veh CDHR5 (11726645_a_at) / RFU RCAN1 (11760418_a_at) / Fold change /veh RCAN1 (11760418_a_at) / RFU FAM167A (11723789_a_at) / Fold change /veh FAM167A (11723789_a_at) / RFU FAM26E (11764081_at) / Fold change /veh FAM26E (11764081_at) / RFU ISYNA1 (11749810_s_at) / Fold change /veh ISYNA1 (11749810_s_at) / RFU ACY1 (11761880_at) / Fold change /veh ACY1 (11761880_at) / RFU 11764098_at / Fold change /veh 11764098_at / RFU SAMD14 (11745864_x_at) / Fold change /veh SAMD14 (11745864_x_at) / RFU NPB (11741838_a_at) / Fold change /veh NPB (11741838_a_at) / RFU TMPRSS6 (11731388_a_at) / Fold change /veh TMPRSS6 (11731388_a_at) / RFU KRTAP10-2 (11738614_at) / Fold change /veh KRTAP10-2 (11738614_at) / RFU ARHGAP8 /// PRR5-ARHGAP8 (11727945_x_at) / Fold change /veh ARHGAP8 /// PRR5-ARHGAP8 (11727945_x_at) / RFU KRTAP5-7 /// NADSYN1 (11734609_at) / Fold change /veh KRTAP5-7 /// NADSYN1 (11734609_at) / RFU RASL12 (11751679_a_at) / Fold change /veh RASL12 (11751679_a_at) / RFU CDKN2B (11736163_a_at) / Fold change /veh CDKN2B (11736163_a_at) / RFU PRF1 (11729649_at) / Fold change /veh PRF1 (11729649_at) / RFU, ZNF638 /// ZNF638-IT1 / Fold change vs veh, ZNF638 /// ZNF638-IT1 / RFU, PANK3 / Fold change vs veh, PANK3 / RFU, SH3YL1 / Fold change vs veh, SH3YL1 / RFU, ZEB2 / Fold change vs veh, ZEB2 / RFU, NRIP1 / Fold change vs veh, NRIP1 / RFU, PTTG1IP / Fold change vs veh, PTTG1IP / RFU, CAPN2 / Fold change vs veh, CAPN2 / RFU, MED14 / Fold change vs veh, MED14 / RFU, SNORA58 / Fold change vs veh, SNORA58 / RFU, C1orf63 / Fold change vs veh, C1orf63 / RFU, LRRFIP1 / Fold change vs veh, LRRFIP1 / RFU, NDUFAF7 / Fold change vs veh, NDUFAF7 / RFU, SLC12A2 / Fold change vs veh, SLC12A2 / RFU, IBTK / Fold change vs veh, IBTK / RFU, ESF1 / Fold change vs veh, ESF1 / Fold change vs veh, TMEM50B / RFU, TAOK1 / Fold change vs veh, TAOK1 / RFU, ACBD3 / Fold change vs veh, ACBD3 / RFU, TMA16 / Fold change vs veh, TMA16 / RFU, RWDD3 / Fold change vs veh, RWDD3 / RFU, BCAT1 / Fold change vs veh, BCAT1 / RFU, EDEM3 / Fold change vs veh, EDEM3 / RFU, TMEM33 / Fold change vs veh, TMEM33 / RFU, WDR75 / Fold change vs veh, WDR75 / RFU, AHCTF1 / Fold change vs veh, AHCTF1 / RFU, TFRC / Fold change vs veh, TFRC / RFU, ZDHHC17 / Fold change vs veh, ZDHHC17 / RFU, NOM1 / Fold change vs veh, NOM1 / RFU, ARL8B / Fold change vs veh, ARL8B / RFU, ZBTB11 / Fold change vs veh, ZBTB11 / RFU, TAMM41 / Fold change vs veh, TAMM41 / RFU, KIAA1704 /// LOC100996395 / Fold change vs veh, KIAA1704 /// LOC100996395 / RFU, ING1 / Fold change vs veh, ING1 / RFU, TRMT61B / Fold change vs veh, TRMT61B / RFU, FUBP3 / Fold change vs veh, FUBP3 / RFU, TP53 / Fold change vs veh, TP53 / RFU, TNKS2 / Fold change vs veh, TNKS2 / RFU, ZFP14 / Fold change vs veh, ZFP14 / RFU, ACTR2 / Fold change vs veh, ACTR2 / RFU, PPP3R1 / Fold change vs veh, PPP3R1 / RFU, PIK3R1 / Fold change vs veh, PIK3R1 / RFU, HNRNPA1 / Fold change vs veh, HNRNPA1 / RFU, RNF170 / Fold change vs veh, RNF170 / RFU, ZNF28 / Fold change vs veh, ZNF28 / RFU, RNGTT / Fold change vs veh, RNGTT / RFU, OGT / Fold change vs veh, OGT / RFU, BRD1 / Fold change vs veh, BRD1 / RFU, MARS / Fold change vs veh, MARS / RFU, ZNF655 / Fold change vs veh, ZNF655 / RFU, FAHD1 / Fold change vs veh, FAHD1 / RFU, BDP1 / Fold change vs veh, BDP1 / RFU, LRRCC1 / Fold change vs veh, LRRCC1 / RFU, ARID1A / Fold change vs veh, ARID1A / RFU, ZNF146 / Fold change vs veh, ZNF146 / RFU, ZNF330 / Fold change vs veh, ZNF330 / RFU, GPN3 / Fold change vs veh, GPN3 / RFU, C9orf123 / Fold change vs veh, C9orf123 / RFU, N4BP2L2 / Fold change vs veh, N4BP2L2 / RFU, ARFIP1 / Fold change vs veh, ARFIP1 / RFU, FAM179B / Fold change vs veh, FAM179B / RFU, BCL10 / Fold change vs veh, BCL10 / RFU, UHRF1BP1L / Fold change vs veh, UHRF1BP1L / RFU, BET1 / Fold change vs veh, BET1 / RFU, CNOT2 / Fold change vs veh, CNOT2 / RFU, ZNF268 / Fold change vs veh, ZNF268 / Fold change vs veh, ZNF507 / RFU, DGCR2 / Fold change vs veh, DGCR2 / RFU, WDSUB1 / Fold change vs veh, WDSUB1 / Fold change vs veh, HSP90B1 /// MIR3652 / RFU, ADSS / Fold change vs veh, ADSS / RFU, GK / Fold change vs veh, GK / RFU, ZNF148 / Fold change vs veh, ZNF148 / RFU, TAF9 / Fold change vs veh, TAF9 / RFU, SLC1A5 / Fold change vs veh, SLC1A5 / RFU, SLMO2 / Fold change vs veh, SLMO2 / RFU, ABCC4 / Fold change vs veh, ABCC4 / RFU, LOC101060439 /// RAP1B / Fold change vs veh, LOC101060439 /// RAP1B / RFU, RFX7 / Fold change vs veh, RFX7 / RFU, GTPBP10 / Fold change vs veh, GTPBP10 / RFU, CNEP1R1 / Fold change vs veh, CNEP1R1 / RFU, BIVM-ERCC5 /// ERCC5 / Fold change vs veh, BIVM-ERCC5 /// ERCC5 / RFU, ILF3 / Fold change vs veh, ILF3 / RFU 11762660_at / Fold change /veh 11762660_at / RFU VCAN (11757783_s_at) / Fold change /veh VCAN (11757783_s_at) / RFU DDX43 (11728927_at) / Fold change /veh DDX43 (11728927_at) / RFU KRT8 (11758188_x_at) / Fold change /veh KRT8 (11758188_x_at) / RFU NKD1 (11759106_at) / Fold change /veh NKD1 (11759106_at) / RFU SRD5A1 (11742802_a_at) / Fold change /veh SRD5A1 (11742802_a_at) / RFU TPSAB1 /// TPSB2 (11721975_s_at) / Fold change /veh TPSAB1 /// TPSB2 (11721975_s_at) / RFU GSTM3 (11746129_a_at) / Fold change /veh GSTM3 (11746129_a_at) / RFU IL23R (11737362_x_at) / Fold change /veh IL23R (11737362_x_at) / RFU TMEM51 (11727254_a_at) / Fold change /veh TMEM51 (11727254_a_at) / RFU PIWIL2 (11732686_x_at) / Fold change /veh PIWIL2 (11732686_x_at) / RFU ORM1 (11744905_x_at) / Fold change /veh ORM1 (11744905_x_at) / RFU CCDC152 (11743942_at) / Fold change /veh CCDC152 (11743942_at) / RFU ECM1 (11717891_a_at) / Fold change /veh ECM1 (11717891_a_at) / RFU IL23R (11748794_a_at) / Fold change /veh IL23R (11748794_a_at) / RFU TNFAIP8L3 (11732012_x_at) / Fold change /veh TNFAIP8L3 (11732012_x_at) / RFU MBOAT4 (11741988_at) / Fold change /veh MBOAT4 (11741988_at) / RFU 11764193_at / Fold change /veh 11764193_at / RFU TMEM53 (11763286_at) / Fold change /veh TMEM53 (11763286_at) / RFU MAGEB2 (11727129_at) / Fold change /veh MAGEB2 (11727129_at) / RFU TMEM200A (11744735_a_at) / Fold change /veh TMEM200A (11744735_a_at) / RFU CCDC152 (11751479_a_at) / Fold change /veh CCDC152 (11751479_a_at) / RFU FAM211A (11726209_a_at) / Fold change /veh FAM211A (11726209_a_at) / RFU RGS16 (11746705_a_at) / Fold change /veh RGS16 (11746705_a_at) / RFU VCAN (11755009_s_at) / Fold change /veh VCAN (11755009_s_at) / RFU RHOB (11743442_s_at) / Fold change /veh RHOB (11743442_s_at) / RFU RGS16 (11720943_a_at) / Fold change /veh RGS16 (11720943_a_at) / RFU RGS16 (11720944_at) / Fold change /veh RGS16 (11720944_at) / RFU, VPS4B / Fold change vs veh, VPS4B / RFU, CREB1 / Fold change vs veh, CREB1 / RFU, DNAJC13 / Fold change vs veh, DNAJC13 / RFU, GNAQ / Fold change vs veh, GNAQ / RFU, CDK5R1 / Fold change vs veh, CDK5R1 / RFU, ZRANB3 / Fold change vs veh, ZRANB3 / RFU, CUL4A / Fold change vs veh, CUL4A / RFU, CCNY / Fold change vs veh, CCNY / RFU, UFL1 / Fold change vs veh, UFL1 / RFU, COG3 / Fold change vs veh, COG3 / RFU, DIAPH2 / Fold change vs veh, DIAPH2 / RFU, SKA2 / Fold change vs veh, SKA2 / RFU, AFF3 / Fold change vs veh, AFF3 / RFU, LMF1 / Fold change vs veh, LMF1 / RFU, IPO11 / Fold change vs veh, IPO11 / RFU, DFFB / Fold change vs veh, DFFB / RFU, FOXP1 / Fold change vs veh, FOXP1 / RFU, CARD8 / Fold change vs veh, CARD8 / RFU, STRN3 / Fold change vs veh, STRN3 / RFU, ADK / Fold change vs veh, ADK / RFU, RASSF2 / Fold change vs veh, RASSF2 / RFU, WIPF1 / Fold change vs veh, WIPF1 / RFU, LARP1B / Fold change vs veh, LARP1B / RFU, RASA1 / Fold change vs veh, RASA1 / RFU, RB1 / Fold change vs veh, RB1 / RFU, PPFIA1 / Fold change vs veh, PPFIA1 / RFU, MAT2A / Fold change vs veh, MAT2A / RFU, CCT5 / Fold change vs veh, CCT5 / RFU, WDR92 / Fold change vs veh, WDR92 / RFU, CUX1 / Fold change vs veh, CUX1 / RFU, TTC7A / Fold change vs veh, TTC7A / RFU, TMEM135 / Fold change vs veh, TMEM135 / RFU, DEPTOR / Fold change vs veh, DEPTOR / RFU, CPM / Fold change vs veh, CPM / RFU, DNAJB6 / Fold change vs veh, DNAJB6 / RFU, CACNA2D3 / Fold change vs veh, CACNA2D3 / RFU, DTX4 / Fold change vs veh, DTX4 / RFU, TFCP2 / Fold change vs veh, TFCP2 / RFU, GMCL1 /// GMCL1P1 / Fold change vs veh, GMCL1 /// GMCL1P1 / RFU, AEBP2 / Fold change vs veh, AEBP2 / RFU, SNHG1 /// SNORD22 /// SNORD25 /// SNORD26 /// SNORD27 /// SNORD28 /// SNORD29 /// SNORD31 / Fold change vs veh, SNHG1 /// SNORD22 /// SNORD25 /// SNORD26 /// SNORD27 /// SNORD28 /// SNORD29 /// SNORD31 / Fold change (Aza/veh), C12orf56 (ProbeSet 11735607_a_at) / Fold change (ACY-1035/veh), C12orf56 (ProbeSet 11735607_a_at) / Fold change (Aza/veh), FGFR1OP (ProbeSet 11751329_s_at) / Fold change (ACY-1035/veh), FGFR1OP (ProbeSet 11751329_s_at) / Fold change (Aza/veh), VPS36 (ProbeSet 11739960_a_at) / Fold change (ACY-1035/veh), VPS36 (ProbeSet 11739960_a_at) / RFU SYPL1 (11715823_x_at) / Fold change /veh SYPL1 (11715823_x_at) / RFU IGFBP7 (11715501_s_at) / Fold change /veh IGFBP7 (11715501_s_at) / RFU REEP3 (11722064_at) / Fold change /veh REEP3 (11722064_at) / RFU IGLL1 (11728026_x_at) / Fold change /veh IGLL1 (11728026_x_at): dose or concentration left out as unconfirmed",
  "conditions": "MV-4-11 cells, 48 hours",
  "data": [
    {"smiles": "Nc1ccc(-c2cccs2)cc1NC(=O)c1ccc2c(c1)cc(C1CC1)n2CCN1CCOCC1", "note": "[ACY-1035]", "values": [
      {"measurement": "RFU SAMD14 (11745864_x_at)", "value": 19.46, "unit": "RFU"}
    ]}
  ]
}
